In brackets after ≈: the same amount, converted by molar mass. Activity calls are given as the source filed them. No cut-off for these calls is given here.
Experiments:
[1] = system: Mycobacterium tuberculosis; assay: microbe, parasite or virus in culture; conditions: H37Rv ATCC 27294, 168 h
Description: Antituberculosis activity against Mycobacterium tuberculosis H37Rv ATCC 27294 in GAS medium after 1 week by microplate alamar blue assay

[2] = system: Mycobacterium tuberculosis; assay: microbe, parasite or virus in culture; conditions: H37Rv ATCC 27294, 168 h; remark: listed apart in the source
Description: Antituberculosis activity against Mycobacterium tuberculosis H37Rv ATCC 27294 in GAST medium after 1 week by microplate alamar blue assay

[3] = system: Vero; assay: Cytotoxicity against african green monkey Vero cells after 72 hrs; assay type: cell-based; conditions: Chlorocebus sabaeus
[4] = system: Escherichia coli; assay: Antimicrobial activity against Escherichia coli; assay type: functional
[5] = system: Staphylococcus aureus; assay: Antibacterial activity against Staphylococcus aureus; assay type: functional
[6] = system: Mycobacterium tuberculosis; assay: Antitubercular activity against non-replicating Mycobacterium tuberculosis H37Rv expressing vibrio harveyii luciferase gene incubated 10 days under anaerobic condition measured after 28 hrs of recovery in aerobic condition by luciferase based low oxygen recovery assay
[7] = system: Candida albicans; assay: Antifungal activity against Candida albicans; assay type: functional
[8] = system: Mycobacterium tuberculosis; assay: microbe, parasite or virus in culture; conditions: H37Rv ATCC 27294, 168 h; remark: listed apart in the source
Description: Antituberculosis activity against Mycobacterium tuberculosis H37Rv ATCC 27294 in 7H12 medium after 1 week by microplate alamar blue assay

[9] = system: Mycolicibacterium smegmatis; assay: Antimicrobial activity against Mycobacterium smegmatis by microbroth dilution assay; assay type: functional
[10] = system: Mycobacterium avium; assay: Antimicrobial activity against Mycobacterium avium by microbroth dilution assay; assay type: functional
[11] = system: Mycobacterium tuberculosis; assay: Antitubercular activity against Mycobacterium tuberculosis assessed as up-regulation of cytochrome bd oxidase at 0.1 to 10 ug/mL after 6 hrs; assay type: functional, organism-based
[12] = Clearance in Sprague-Dawley rat at 1 mg/kg, iv; assay type: ADME, organism-based; design: dose 1 mg/kg, route intravenous; conditions: in vivo
[13] = Cmax in Sprague-Dawley rat at 10 mg/kg, po; assay type: ADME, organism-based; design: dose 10 mg/kg, route oral; conditions: in vivo
[14] = system: Mycobacterium kansasii; assay: Antimicrobial activity against Mycobacterium kansasii by microbroth dilution assay; assay type: functional
[15] = system: Mycobacterium tuberculosis; assay: microbe, parasite or virus in culture; conditions: H37Rv
Description: Antimicrobial activity against Mycobacterium tuberculosis H37Rv by microbroth dilution assay

[16] = Half life in rat liver microsomes at 1 mM by LC/MS analysis; assay type: ADME, Microsome
[17] = Half life in Sprague-Dawley rat at 1 mg/kg, iv; assay type: ADME, organism-based; design: dose 1 mg/kg, route intravenous; conditions: in vivo
[18] = system: Rattus norvegicus; assay: Oral bioavailability in Sprague-Dawley rat at 10 mg/kg; assay type: ADME, organism-based; conditions: in vivo
[19] = system: Mycobacteroides chelonae; assay: Antimicrobial activity against Mycobacterium chelonae by microbroth dilution assay; assay type: functional
[20] = Drug metabolism in human liver microsomes at 1 mM after 30 mins by LC/MS analysis; assay type: ADME, Microsome; conditions: read-out: Drug metabolism
[21] = Aqueous solubility of the compound in PBS buffer at pH 7.4; assay type: physicochemical
[22] = system: Mycobacteroides abscessus; assay: Antimicrobial activity against Mycobacterium abscessus by microbroth dilution assay; assay type: functional
[23] = in vivo; conditions: Sprague-Dawley, rat, po, 10 mg/kg
[24] = system: Mycobacterium marinum; assay: Antimicrobial activity against Mycobacterium marinum by microbroth dilution assay; assay type: functional
[25] = Drug metabolism in rat liver microsomes at 1 mM after 30 mins by LC/MS analysis; assay type: ADME, Microsome; conditions: read-out: Drug metabolism
[26] = system: Mycobacterium tuberculosis; assay: Antitubercular activity against Mycobacterium tuberculosis assessed as up-regulation of phosphoenolpyruvate carboxykinase at 0.1 to 10 ug/mL after 6 hrs; assay type: functional, organism-based

SMILES	MIC90 [1]	MIC90 [2]	IC50 [3]	MIC [4]	MIC [5]	MIC90 [6]	MIC [7]	MIC90 [8]	clearance [12]	Cmax [13]	half-life [17]	metabolised at 0.5 h [20]	solubility [21]	Tmax [23]	metabolised at 0.5 h [25]	further results
Cc1ccn2c(C(=O)NCc3cccc(F)c3)c(C)nc2c1	0.29 µM (≈ 0.0862 µg/mL)	0.38 µM (≈ 0.113 µg/mL)	> 128 µM	> 128 µM	> 128 µM	40.1 µM (≈ 11.9 µg/mL)	> 128 µM	1.98 µM (≈ 0.589 µg/mL)	–	–	–	–	–	–	–	–
Cc1ccc(CNC(=O)c2c(C)nc3cc(C)ccn23)cc1	0.51 µM (≈ 0.15 µg/mL)	0.8 µM (≈ 0.235 µg/mL)	54.7 µM	–	–	–	–	–	–	–	–	–	–	–	–	–
Cc1ccn2c(C(=O)NCc3ccccc3)c(C)nc2c1	0.37 µM (≈ 0.103 µg/mL)	0.69 µM (≈ 0.193 µg/mL)	> 128 µM	> 128 µM	> 128 µM	53.6 µM (≈ 15 µg/mL)	> 128 µM	1.9 µM (≈ 0.531 µg/mL)	91 mL/min/kg	3010 ng/mL	21 min	59%	181 µM (≈ 50.6 µg/mL)	15 min	71%	MIC90 [9]: > 50 µM; MIC90 [10]: 1.32 µM (≈ 0.369 µg/mL); Activity [11]: Active; MIC90 [14]: 1.32 µM (≈ 0.369 µg/mL); MIC90 [15]: 1.07 µM (≈ 0.299 µg/mL); half-life [16]: 19 min; F [18]: 76%; MIC90 [19]: > 50 µM; MIC90 [22]: > 50 µM; MIC90 [24]: > 50 µM; Activity [26]: Active
Cc1ccn2c(C(=O)NCc3ccc(Cl)cc3)c(C)nc2c1	0.5 µM (≈ 0.157 µg/mL)	0.51 µM (≈ 0.16 µg/mL)	> 128 µM	> 128 µM	> 128 µM	28 µM (≈ 8.79 µg/mL)	> 128 µM	1.94 µM (≈ 0.609 µg/mL)	51 mL/min/kg	2000 ng/mL	24 min	82%	25 µM (≈ 7.84 µg/mL)	18.6 min	79%	F [18]: 49%
COc1cccc(CNC(=O)c2c(C)nc3ncc(C)cn23)c1	–	0.1 µM (≈ 0.031 µg/mL)	88.7 µM	> 128 µM	> 128 µM	> 10 µM	> 128 µM	0.48 µM (≈ 0.149 µg/mL)	–	–	–	–	–	–	–	MIC90 [9]: > 50 µM; MIC90 [10]: 12 µM (≈ 3.72 µg/mL); MIC90 [14]: 12 µM (≈ 3.72 µg/mL); MIC90 [15]: 5.94 µM (≈ 1.84 µg/mL); MIC90 [19]: > 50 µM; MIC90 [22]: > 50 µM; MIC90 [24]: > 50 µM
COc1ccc(CNC(=O)c2c(C)nc3cc(C)ccn23)cc1	0.51 µM (≈ 0.158 µg/mL)	0.5 µM (≈ 0.155 µg/mL)	> 128 µM	> 128 µM	> 128 µM	10.5 µM (≈ 3.25 µg/mL)	> 128 µM	1.35 µM (≈ 0.418 µg/mL)	28 mL/min/kg	5740 ng/mL	16.8 min	30%	148 µM (≈ 45.8 µg/mL)	15 min	69%	F [18]: 50%
CO[C@H]1/C=C/O[C@@]2(C)Oc3c(C)c(O)c4c(O)c(c(/C=N/N5CCN(C)CC5)c(O)c4c3C2=O)NC(=O)/C(C)=C\C=C\[C@H](C)[C@H](O)[C@@H](C)[C@@H](O)[C@@H](C)[C@H](OC(C)=O)[C@@H]1C [RIFAMPIN]	0.8 µM (≈ 0.658 µg/mL)	0.2 µM (≈ 0.165 µg/mL)	113 µM	–	–	–	–	0.07 µM (≈ 0.0576 µg/mL)	–	–	–	–	–	–	–	MIC90 [9]: 162 µM (≈ 134 µg/mL); MIC90 [10]: < 0.78 µM; MIC90 [14]: < 0.78 µM; MIC90 [15]: 0.05 µM (≈ 0.0411 µg/mL); MIC90 [19]: 150 µM (≈ 123 µg/mL); MIC90 [22]: 162 µM (≈ 134 µg/mL); MIC90 [24]: < 0.78 µM
O=[N+]([O-])c1cn2c(n1)OC[C@@H](OCc1ccc(OC(F)(F)F)cc1)C2 [PRETOMANID]	0.31 µM (≈ 0.111 µg/mL)	0.21 µM (≈ 0.0754 µg/mL)	> 128 µM	–	–	4.9 µM (≈ 1.76 µg/mL)	–	0.47 µM (≈ 0.169 µg/mL)	–	–	–	–	–	–	–	–
Cc1ccn2c(C(=O)Nc3ccccc3)c(C)nc2c1	–	> 128 µM	–	–	–	–	–	–	–	–	–	–	–	–	–	–
Cc1ccn2c(C(=O)NCc3ccc(Cl)c(Cl)c3)c(C)nc2c1	9.3 µM (≈ 3.24 µg/mL)	14.4 µM (≈ 5.01 µg/mL)	–	–	–	–	–	–	–	–	–	–	–	–	–	–
COc1cccc(CNC(=O)c2c(C)nc3cc(C)ccn23)c1	1.2 µM (≈ 0.371 µg/mL)	1 µM (≈ 0.309 µg/mL)	> 128 µM	> 128 µM	> 128 µM	31.4 µM (≈ 9.71 µg/mL)	> 128 µM	5.9 µM (≈ 1.83 µg/mL)	43 mL/min/kg	3140 ng/mL	19.8 min	47%	149 µM (≈ 46.1 µg/mL)	15 min	80%	–
COc1ccccc1CNC(=O)c1c(C)nc2cc(C)ccn12	2.8 µM (≈ 0.866 µg/mL)	1.9 µM (≈ 0.588 µg/mL)	> 128 µM	–	–	–	–	–	–	–	–	–	–	–	–	–

Reference: ChEMBL document CHEMBL1949614, “Advent of Imidazo[1,2-a]pyridine-3-carboxamides with Potent Multi- and Extended Drug Resistant Antituberculosis Activity” (ACS Med Chem Lett, 2011)
